The subject of series [1] is HLMs. Kind of series: Chemical inhibition assay: formation of P4 from toddalolactone in HLMs. Type of series: in vitro ADME, human. Conditions: HLMs with toddalolactone and NADPH-generating system; ketoconazole 1 μM, clobetasol propionate 1.8 μM, quinidine 10 μM; vs no inhibitor. On the procedure:
All incubation assays were completed in triplicate. The data are presented as mean ± standard deviation (SD).
Specific inhibitors for P450 isoforms were used to explore the contribution of CYP isoforms to the biotransformation of toddalolactone. […] In brief, toddalolactone was incubated with HLMs and an NADPH-generating system in the presence and absence (control) of the aforementioned specific inhibitors.

In series [2] the target is CYP3A5 (Homo sapiens, UniProt P20815). On the set-up: purchased Corning Life Sciences (Corning, MA); host or cells: Saccharomyces cerevisiae; method as in Wright et al. [2020]. To be noted: at 1.8 μM; ref Wright et al. [2020]; cited from earlier work.
Substrate in series [3]: COc1cc2oc(=O)ccc2c(OC)c1C[C@@H](O)C(C)(C)O
In words: cells, lysate or membranes named. To be noted: P4 formation, toddalolactone 1–200 μM, pH 7.4, 37.0 °C.

On to `CCC(=O)O[C@]1(C(=O)CCl)[C@@H](C)C[C@H]2[C@@H]3CCC4=CC(=O)C=C[C@]4(C)[C@@]3(F)[C@@H](O)C[C@@]21C` [clobetasol propionate], for which, in series [1], the “inhibition of formation of P4” value is recorded as around 40%. The “inhibition of CYP3A5” value in series [2] is reported as 90%.

B1: CYP3A5 (Homo sapiens) (protein)
chain: MDLIPNLAVETWLLLAVSLVLLYLYGTRTHGLFKRLGIPGPTPLPLLGNVLSYRQGLWKFDTECYKKYGKMWGTYEGQLPVLAITDPDVIRTVLVKECYSVFTNRRSLGPVGFMKSAISLAEDEEWKRIRSLLSPTFTSGKLKEMFPIIAQYGDVLVRNLRREAEKGKPVTLKDIFGAYSMDVITGTSFGVNIDSLNNPQDPFVESTKKFLKFGFLDPLFLSIILFPFLTPVFEALNVSLFPKDTINFLSKSVNRMKKSRLNDKQKHRLDFLQLMIDSQNSKETESHKALSDLELAAQSIIFIFAGYETTSSVLSFTLYELATHPDVQQKLQKEIDAVLPNKAPPTYDAVVQMEYLDMVVNETLRLFPVAIRLERTCKKDVEINGVFIPKGSMVVIPTYALHHDPKYWTEPEEFRPERFSKKKDSIDPYIYTPFGTGPRNCIGMRFALMNMKLALIRVLQNFSFKPCKETQIPLKLDTQGLLQPEKPIVLKVDSRDGTLSGE
On to B1, for which the kcat in series [3] (other: recombinant CYP3A5 (15 nM)) is reported as 0.68 ± 0.04 pmol/min/nmol CYP.

B2: CYP1A1 (Homo sapiens) (protein)
chain: MLFPISMSATEFLLASVIFCLVFWVIRASRPQVPKGLKNPPGPWGWPLIGHMLTLGKNPHLALSRMSQQYGDVLQIRIGSTPVVVLSGLDTIRQALVRQGDDFKGRPDLYTFTLISNGQSMSFSPDSGPVWAARRRLAQNGLKSFSIASDPASSTSCYLEEHVSKEAEVLISTLQELMAGPGHFNPYRYVVVSVTNVICAICFGRRYDHNHQELLSLVNLNNNFGEVVGSGNPADFIPILRYLPNPSLNAFKDLNEKFYSFMQKMVKEHYKTFEKGHIRDITDSLIEHCQEKQLDENANVQLSDEKIINIVLDLFGAGFDTVTTAISWSLMYLVMNPRVQRKIQEELDTVIGRSRRPRLSDRSHLPYMEAFILETFRHSSFVPFTIPHSTTRDTSLKGFYIPKGRCVFVNQWQINHDQKLWVNPSEFLPERFLTPDGAIDKVLSEKVIIFGMGKRKCIGETIARWEVFLFLAILLQRVEFSVPLGVKVDMTPIYGLTMKHACCEHFQMQLRS
As to B2, the kcat in series [3] (other: recombinant CYP1A1 (15 nM)) stood at 0.76 ± 0.03 pmol/min/nmol CYP.

Source of the values: article PMC9367672, “In vitro differences in toddalolactone metabolism in various species and its effect on cytochrome P450 expression” (Pharmaceutical Biology, 2022).
